# Data: patent US20230085307A1, “PYRIDAZINONE COMPOUND AND HERBICIDE” (NISSAN CHEMICAL CORPORATION, priority 2019, published 2023)
# How the values were obtained:
# barnyard grass [1] = assay: Test Example 4: herbicidal effect by soil treatment (Table 19, symbol H); assay type: in vivo, barnyard grass (Echinochloa crus-galli); settings: amount of applied herbicide 320 g/ha
# Outline: (§1)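 In this soil treatment, the formulated compound reached the seeds only through the soil: seeds were buried about 1.5 cm deep in sterilized diluvial soil, then the diluted emulsion was sprayed over the surface. After three weeks at 25° C. to 30° C. in a greenhouse, effects were graded on criteria from an earlier test.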
# blackgrass [2] = assay: Test Example 5: herbicidal effect by foliage application, plastic box (Table 20, symbol J); assay type: in vivo, blackgrass (Alopecurus myosuroides); settings: foliage application, 320 g/ha, evaluated three weeks after application
# Outline: (§2)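 Plants were sown into sterilized diluvial soil under about 1.5 cm cover and kept in a greenhouse at 25° C. to 30° C. Fourteen days on, foliage received an even spray of the diluted emulsion. Herbicidal or crop effect was judged three weeks afterwards.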
# green foxtail [3] = assay: Test Example 5: herbicidal effect by foliage application, plastic box (Table 20, symbol G); assay type: in vivo, green foxtail (Setaria viridis); settings: foliage application, 320 g/ha, evaluated three weeks after application
# Outline: as §2
# velvetleaf [4] = assay: Test Example 4: herbicidal effect by soil treatment (Table 19, symbol M); assay type: in vivo, velvetleaf (Abutilon theophrasti); settings: amount of applied herbicide 320 g/ha
# Outline: as §1
# wild oat [5] = assay: Test Example 5: herbicidal effect by foliage application, plastic box (Table 20, symbol I); assay type: in vivo, wild oat (Avena fatua); settings: foliage application, 320 g/ha, evaluated three weeks after application
# Outline: as §2
# Chinese sprangletop = assay: Test Example 3: herbicidal effect by foliage application, Wagner pot (Table 18, symbol D); assay type: in vivo, chinese sprangletop (Leptochloa chinensis); settings: amount of applied herbicide 320 g/ha
# Outline: (§3)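 Plants were sown in alluvial soil held under 0.1–0.5 cm standing water and grown 14 days in a greenhouse at 25–30 °C. An emulsifiable formulation, water-diluted to the set dose, was then sprayed onto the foliage, and effects were scored three weeks later using previously defined criteria.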
# persian speedwell [6] = assay: Test Example 5: herbicidal effect by foliage application, plastic box (Table 20, symbol R); assay type: in vivo, Persian speedwell (Veronica persica); settings: foliage application, 320 g/ha, evaluated three weeks after application
# Outline: as §2
# wild oat [7] = assay: Test Example 4: herbicidal effect by soil treatment (Table 19, symbol I); assay type: in vivo, wild oat (Avena fatua); settings: amount of applied herbicide 320 g/ha
# Outline: as §1
# blackgrass [8] = assay: Test Example 4: herbicidal effect by soil treatment (Table 19, symbol J); assay type: in vivo, blackgrass (Alopecurus myosuroides); settings: amount of applied herbicide 320 g/ha
# Outline: as §1
# chickweed [9] = assay: Test Example 4: herbicidal effect by soil treatment (Table 19, symbol P); assay type: in vivo, common chickweed (Stellaria media); settings: amount of applied herbicide 320 g/ha
# Outline: as §1
# redroot pigweed [10] = assay: Test Example 5: herbicidal effect by foliage application, plastic box (Table 20, symbol N); assay type: in vivo, redroot pigweed (Amaranthus retroflexus); settings: foliage application, 320 g/ha, evaluated three weeks after application
# Outline: as §2
# Italian ryegrass [11] = assay: Test Example 5: herbicidal effect by foliage application, plastic box (Table 20, symbol K); assay type: in vivo, Italian ryegrass (Lolium multiflorum); settings: foliage application, 320 g/ha, evaluated three weeks after application
# Outline: as §2
# barnyard grass [12] = assay: Test Example 3: herbicidal effect by foliage application, Wagner pot (Table 18, symbol H); assay type: in vivo, barnyard grass (Echinochloa crus-galli); settings: amount of applied herbicide 320 g/ha
# Outline: as §3
# windgrass [13] = assay: Test Example 4: herbicidal effect by soil treatment (Table 19, symbol L); assay type: in vivo, windgrass (Apera spica-venti); settings: amount of applied herbicide 320 g/ha
# Outline: as §1
# lambsquarters [14] = assay: Test Example 5: herbicidal effect by foliage application, plastic box (Table 20, symbol O); assay type: in vivo, lambsquarters (Chenopodium album); settings: foliage application, 320 g/ha, evaluated three weeks after application
# Outline: as §2
# persian speedwell [15] = assay: Test Example 4: herbicidal effect by soil treatment (Table 19, symbol R); assay type: in vivo, Persian speedwell (Veronica persica); settings: amount of applied herbicide 320 g/ha
# Outline: as §1
# green foxtail [16] = assay: Test Example 4: herbicidal effect by soil treatment (Table 19, symbol G); assay type: in vivo, green foxtail (Setaria viridis); settings: amount of applied herbicide 320 g/ha
# Outline: as §1
# southern crabgrass [17] = assay: Test Example 4: herbicidal effect by soil treatment (Table 19, symbol F); assay type: in vivo, southern crabgrass (Digitaria ciliaris); settings: amount of applied herbicide 320 g/ha
# Outline: as §1
# windgrass [18] = assay: Test Example 5: herbicidal effect by foliage application, plastic box (Table 20, symbol L); assay type: in vivo, windgrass (Apera spica-venti); settings: foliage application, 320 g/ha, evaluated three weeks after application
# Outline: as §2
# rice flat sedge = assay: Test Example 3: herbicidal effect by foliage application, Wagner pot (Table 18, symbol E); assay type: in vivo, rice flat sedge (Cyperus iria); settings: amount of applied herbicide 320 g/ha
# Outline: as §3
# redroot pigweed [19] = assay: Test Example 4: herbicidal effect by soil treatment (Table 19, symbol N); assay type: in vivo, redroot pigweed (Amaranthus retroflexus); settings: amount of applied herbicide 320 g/ha
# Outline: as §1
# lambsquarters [20] = assay: Test Example 4: herbicidal effect by soil treatment (Table 19, symbol O); assay type: in vivo, lambsquarters (Chenopodium album); settings: amount of applied herbicide 320 g/ha
# Outline: as §1
# chickweed [21] = assay: Test Example 5: herbicidal effect by foliage application, plastic box (Table 20, symbol P); assay type: in vivo, common chickweed (Stellaria media); settings: foliage application, 320 g/ha, evaluated three weeks after application
# Outline: as §2
# Italian ryegrass [22] = assay: Test Example 4: herbicidal effect by soil treatment (Table 19, symbol K); assay type: in vivo, Italian ryegrass (Lolium multiflorum); settings: amount of applied herbicide 320 g/ha
# Outline: as §1
# velvetleaf [23] = assay: Test Example 5: herbicidal effect by foliage application, plastic box (Table 20, symbol M); assay type: in vivo, velvetleaf (Abutilon theophrasti); settings: foliage application, 320 g/ha, evaluated three weeks after application
# Outline: as §2
# barnyard grass [24] = assay: Test Example 5: herbicidal effect by foliage application, plastic box (Table 20, symbol H); assay type: in vivo, barnyard grass (Echinochloa crus-galli); settings: foliage application, 320 g/ha, evaluated three weeks after application
# Outline: as §2
# southern crabgrass [25] = assay: Test Example 5: herbicidal effect by foliage application, plastic box (Table 20, symbol F); assay type: in vivo, southern crabgrass (Digitaria ciliaris); settings: foliage application, 320 g/ha, evaluated three weeks after application
# Outline: as §2
Structure (SMILES),"H: barnyard grass, herbicidal effect rating (barnyard grass [1])","M: velvetleaf, herbicidal effect rating (velvetleaf [4])",herbicidal effect on D: Chinese sprangletop (Chinese sprangletop),"I: wild oat, herbicidal effect rating (wild oat [7])","J: blackgrass, herbicidal effect rating (blackgrass [8])","P: chickweed, herbicidal effect rating (chickweed [9])",herbicidal effect on H: barnyard grass (barnyard grass [12]),"L: windgrass, herbicidal effect rating (windgrass [13])","R: persian speedwell, herbicidal effect rating (persian speedwell [15])","G: green foxtail, herbicidal effect rating (green foxtail [16])","F: southern crabgrass, herbicidal effect rating (southern crabgrass [17])",herbicidal effect on E: rice flat sedge (rice flat sedge),"N: redroot pigweed, herbicidal effect rating (redroot pigweed [19])","O: lambsquarters, herbicidal effect rating (lambsquarters [20])","K: Italian ryegrass, herbicidal effect rating (Italian ryegrass [22])",herbicidal effect on J: blackgrass (criteria 0-5) (blackgrass [2]),herbicidal effect on G: green foxtail (criteria 0-5) (green foxtail [3]),herbicidal effect on I: wild oat (criteria 0-5) (wild oat [5]),herbicidal effect on R: persian speedwell (criteria 0-5) (persian speedwell [6]),herbicidal effect on N: redroot pigweed (criteria 0-5) (redroot pigweed [10]),further results
CCCC(=O)Oc1c(C)nn(C)c(=O)c1-c1c(-c2ccc(C)cc2)sc2ccc(C)cc12 [2-137],0 (Herbicidal rate of 5% or less (almost no effect)),0 (Herbicidal rate of 5% or less (almost no effect)),1 (Herbicidal rate of 5% or more and less than 20%),0 (Herbicidal rate of 5% or less (almost no effect)),0 (Herbicidal rate of 5% or less (almost no effect)),4 (Herbicidal rate of 70% or more and less than 90%),1 (Herbicidal rate of 5% or more and less than 20%),0 (Herbicidal rate of 5% or less (almost no effect)),1 (Herbicidal rate of 5% or more and less than 20%),0 (Herbicidal rate of 5% or less (almost no effect)),0 (Herbicidal rate of 5% or less (almost no effect)),5 (Herbicidal rate of 90% or more (almost completely withered)),0 (Herbicidal rate of 5% or less (almost no effect)),0 (Herbicidal rate of 5% or less (almost no effect)),2 (Herbicidal rate of 20% or more and less than 40%),–,–,–,–,–,herbicidal effect on J: blackgrass (blackgrass [2]): 0 (Herbicidal rate of 5% or less (almost no effect)); herbicidal effect on G: green foxtail (green foxtail [3]): 3 (Herbicidal rate of 40% or more and less than 70%); herbicidal effect on I: wild oat (wild oat [5]): 0 (Herbicidal rate of 5% or less (almost no effect)); herbicidal effect on R: persian speedwell (persian speedwell [6]): 5 (Herbicidal rate of 90% or more (almost completely withered)); herbicidal effect on N: redroot pigweed (redroot pigweed [10]): 4 (Herbicidal rate of 70% or more and less than 90%); herbicidal effect on K: Italian ryegrass (Italian ryegrass [11]): 4 (Herbicidal rate of 70% or more and less than 90%); herbicidal effect on O: lambsquarters (lambsquarters [14]): 2 (Herbicidal rate of 20% or more and less than 40%); herbicidal effect on L: windgrass (windgrass [18]): 0 (Herbicidal rate of 5% or less (almost no effect)); herbicidal effect on P: chickweed (chickweed [21]): 5 (Herbicidal rate of 90% or more (almost completely withered)); herbicidal effect on M: velvetleaf (velvetleaf [23]): 4 (Herbicidal rate of 70% or more and less than 90%); herbicidal effect on H: barnyard grass (barnyard grass [24]): 0 (Herbicidal rate of 5% or less (almost no effect)); herbicidal effect on F: southern crabgrass (southern crabgrass [25]): 0 (Herbicidal rate of 5% or less (almost no effect))
Cc1ccc2sc(-c3ccc4c(c3)OCO4)c(-c3c(O)c(C)nn(C)c3=O)c2c1 [2-156],0 (Herbicidal rate of 5% or less (almost no effect)),0 (Herbicidal rate of 5% or less (almost no effect)),0 (Herbicidal rate of 5% or less (almost no effect)),0 (Herbicidal rate of 5% or less (almost no effect)),0 (Herbicidal rate of 5% or less (almost no effect)),4 (Herbicidal rate of 70% or more and less than 90%),3 (Herbicidal rate of 40% or more and less than 70%),0 (Herbicidal rate of 5% or less (almost no effect)),4 (Herbicidal rate of 70% or more and less than 90%),0 (Herbicidal rate of 5% or less (almost no effect)),0 (Herbicidal rate of 5% or less (almost no effect)),4 (Herbicidal rate of 70% or more and less than 90%),2 (Herbicidal rate of 20% or more and less than 40%),3 (Herbicidal rate of 40% or more and less than 70%),0 (Herbicidal rate of 5% or less (almost no effect)),0 (Herbicidal rate of 5% or less (almost no effect)),0 (Herbicidal rate of 5% or less (almost no effect)),0 (Herbicidal rate of 5% or less (almost no effect)),5 (Herbicidal rate of 90% or more (almost completely withered)),3 (Herbicidal rate of 40% or more and less than 70%),herbicidal effect on K: Italian ryegrass (criteria 0-5) (Italian ryegrass [11]): 1 (Herbicidal rate of 5% or more and less than 20%); herbicidal effect on O: lambsquarters (criteria 0-5) (lambsquarters [14]): 0 (Herbicidal rate of 5% or less (almost no effect)); herbicidal effect on L: windgrass (criteria 0-5) (windgrass [18]): 0 (Herbicidal rate of 5% or less (almost no effect)); herbicidal effect on P: chickweed (criteria 0-5) (chickweed [21]): 5 (Herbicidal rate of 90% or more (almost completely withered)); herbicidal effect on M: velvetleaf (criteria 0-5) (velvetleaf [23]): 4 (Herbicidal rate of 70% or more and less than 90%); herbicidal effect on H: barnyard grass (criteria 0-5) (barnyard grass [24]): 0 (Herbicidal rate of 5% or less (almost no effect)); herbicidal effect on F: southern crabgrass (criteria 0-5) (southern crabgrass [25]): 0 (Herbicidal rate of 5% or less (almost no effect))
C#Cc1ccc2sc(-c3ccccc3OC)c(-c3c(O)c(C)nn(C)c3=O)c2c1 [2-187],3 (Herbicidal rate of 40% or more and less than 70%),2 (Herbicidal rate of 20% or more and less than 40%),0 (Herbicidal rate of 5% or less (almost no effect)),0 (Herbicidal rate of 5% or less (almost no effect)),4 (Herbicidal rate of 70% or more and less than 90%),3 (Herbicidal rate of 40% or more and less than 70%),4 (Herbicidal rate of 70% or more and less than 90%),5 (Herbicidal rate of 90% or more (almost completely withered)),0 (Herbicidal rate of 5% or less (almost no effect)),4 (Herbicidal rate of 70% or more and less than 90%),1 (Herbicidal rate of 5% or more and less than 20%),0 (Herbicidal rate of 5% or less (almost no effect)),4 (Herbicidal rate of 70% or more and less than 90%),4 (Herbicidal rate of 70% or more and less than 90%),4 (Herbicidal rate of 70% or more and less than 90%),5 (Herbicidal rate of 90% or more (almost completely withered)),3 (Herbicidal rate of 40% or more and less than 70%),0 (Herbicidal rate of 5% or less (almost no effect)),5 (Herbicidal rate of 90% or more (almost completely withered)),5 (Herbicidal rate of 90% or more (almost completely withered)),herbicidal effect on K: Italian ryegrass (criteria 0-5) (Italian ryegrass [11]): 4 (Herbicidal rate of 70% or more and less than 90%); herbicidal effect on O: lambsquarters (criteria 0-5) (lambsquarters [14]): 4 (Herbicidal rate of 70% or more and less than 90%); herbicidal effect on L: windgrass (criteria 0-5) (windgrass [18]): 5 (Herbicidal rate of 90% or more (almost completely withered)); herbicidal effect on P: chickweed (criteria 0-5) (chickweed [21]): 5 (Herbicidal rate of 90% or more (almost completely withered)); herbicidal effect on M: velvetleaf (criteria 0-5) (velvetleaf [23]): 5 (Herbicidal rate of 90% or more (almost completely withered)); herbicidal effect on H: barnyard grass (criteria 0-5) (barnyard grass [24]): 1 (Herbicidal rate of 5% or more and less than 20%); herbicidal effect on F: southern crabgrass (criteria 0-5) (southern crabgrass [25]): 4 (Herbicidal rate of 70% or more and less than 90%)
